US20040006120A1, “Use of histamine h3 receptor inverse agonists for the control of appetite and treatment of obesity” (priority 2003, published 2004)
Marks after values point to notes of the source that are not given here.

How the values were obtained:
Histamine H3 receptor = molecular target: T1, Histamine H3 receptor (Rattus norvegicus, UniProt Q9QYN8); assay: Histamine H3 receptor binding in rat cerebral cortical membranes with [3H]-Nα-methylhistamine, with and without GTPγS; details: in words
T1 construct: The cerebral cortical tissues were harvested and frozen on dry ice; from tissue; host or cells: cerebral cortex of male Sprague-Dawley rats (membrane preparation)

[1] = system: food consumption by adult Sprague-Dawley rats; assay: Food intake by adult Sprague-Dawley rats; format: in vivo, rat; details: for Decrease in Food Intake (%): two hours following the onset of the dark cycle
Method: The compounds summarized in Table 3 were examined for their ability to suppress food consumption by adult Sprague-Dawley rats. Male Sprague Dawley rats were purchased from Harlan Laboratories of Indianapolis, Ind. Rats were housed one per cage and maintained on a 12 hour light/dark schedule (lights-out at 12:30 p.m.) with ad libitum access to powdered Teklad Mouse/Rat Diet 7012 (available from Harlan Laboratories of Indianapolis, Ind.) and water. Rats were acclimated to laboratory conditions and food for 1 to 2 weeks prior to initiating food intake studies. On the day of experiments, test compounds were solubilized or suspended in vehicle/carrier and administered to rats (i.p. or p.o.) 30 to 60 minutes prior to the onset of the dark cycle. Food intake was determined at 1, 2, 4, and 24 hours following the onset of the dark cycle. Alternatively, rats were fasted (water provided) for 24 hours prior to evaluating the effects of compounds on food intake. For these studies, compounds or vehicle/carrier were administered and rats were placed in standard small animal metabolism chambers with ad libitum access to powdered Teklad Mouse/Rat Diet 7012 and water. Food intake was determined at 2 and 4 hours following the onset of feeding.
Data is cumulative food intake in grams, mean ± sem. In the table, * indicates a significant decrease in food intake compared to the vehicle-treated rats (t-test, p<0.05).
(§1) The percent reduction in food intake by rats two hours after intraperitoneal administration of each compound is shown in Table 5. […] In Table 5, * indicates a significant decrease in food intake compared to the vehicle-treated rats (t-test, p<0.05). The ex vivo binding values in Table 5 represent the drug dose required to obtain ½-maximal H3 receptor occupancy in the brain following intraperitoneal administration. The dose values shown in Table 5 represent the dosage of drug utilized during the food intake studies. In all cases, the tested dose exceeded the amount needed to obtain ½-maximal H3 receptor occupancy in the brain.

[2] = molecular target: T2, H3 receptor occupancy in the brain (Rattus norvegicus, UniProt Q9QYN8); assay: Ex vivo binding: H3 receptor occupancy in the brain after intraperitoneal administration; details: following intraperitoneal administration
T2 construct: H3 receptor occupancy in the brain following intraperitoneal administration; from tissue
Excerpt: as §1

T2 sequence (Q9QYN8 whole entry): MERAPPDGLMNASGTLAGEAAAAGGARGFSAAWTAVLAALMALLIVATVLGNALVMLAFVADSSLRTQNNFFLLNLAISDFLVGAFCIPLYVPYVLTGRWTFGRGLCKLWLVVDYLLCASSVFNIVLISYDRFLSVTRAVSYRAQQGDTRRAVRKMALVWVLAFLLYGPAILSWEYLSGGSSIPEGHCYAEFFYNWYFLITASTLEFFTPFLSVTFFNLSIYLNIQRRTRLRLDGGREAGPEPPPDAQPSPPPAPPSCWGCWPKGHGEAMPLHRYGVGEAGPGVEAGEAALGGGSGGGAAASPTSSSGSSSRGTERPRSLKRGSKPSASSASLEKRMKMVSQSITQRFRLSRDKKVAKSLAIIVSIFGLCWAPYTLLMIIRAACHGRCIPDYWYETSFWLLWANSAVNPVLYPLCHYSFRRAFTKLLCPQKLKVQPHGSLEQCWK
T1 sequence (Q9QYN8 whole entry): as above

Row | Structure (SMILES) | Ex Vivo Binding: drug dose required to obtain ½-maximal H3 receptor occupancy in the brain [2] | Decrease in Food Intake (%) ([1]; Dose 10, intraperitoneal) | further results
1 | CC(C)(C)CCC#C[C@@H]1C[C@H]1c1c[nH]cn1 [Compound 6, (1R,2R)-trans-4-(2-(5,5-dimethylhex-1-ynyl)cyclopropyl)imidazole] | 0.08 ± 0.03 mg/kg |  | Decrease in Food Intake (%) ([1]; Dose 1, intraperitoneal): −4.6 ± 0.8%
2 | O=C(N[C@@H]1C[C@H]1c1c[nH]cn1)OCc1c(Cl)cccc1Cl [Compound 7, 4-((1R,2R)-trans-2-(O-(2,6-dichlorophenylmethyl)carboxamido)cyclopropyl)imidazole] | 2.9 ± 1.3 mg/kg | 0.8 ± 0.0% | 
3 | CC(C)(C)CCOC(=O)N[C@@H]1C[C@H]1c1c[nH]cn1 [Compound 9, 4-((1R,2R)-trans-2-(O-(3,3-dimethyl-but-1-yl)carboxamido)cyclopropyl)imidazole] | 3.7 ± 0.4 mg/kg | −25.1 ± 3.8% | 
4 | O=C(N[C@@H]1C[C@H]1c1c[nH]cn1)OCC1CCCCC1 [Compound 3, 4-((1R,2R)-trans-2-(O-(2-cyclohexylmethyl)carboxamido)cyclopropyl)imidazole] | 2.6 ± 1.3 mg/kg | 36.4 ± 3.3* % | duration of significant reduction of food consumption ([1]; single administration, 10 mg/kg i.p.): up to 24 hours
5 | O=C(N[C@@H]1C[C@H]1c1c[nH]cn1)OCCC1CCCCC1 [Compound 1, 4-((1R,2R)-trans-2-(O(2-cyclohexylethyl)carboxamido)cyclopropyl)imidazole] | 31 ± 1.3 mg/kg | 32.6 ± 4.3* % | 

Now from value to compound, other results behind:

Row | Ex Vivo Binding: drug dose required to obtain ½-maximal H3 receptor occupancy in the brain [2] | Structure (SMILES) | Decrease in Food Intake (%) ([1]; Dose 10, intraperitoneal) | further results
6 | 0.92 ± 0.01 mg/kg | C(=C/CCC1CCCCC1)/CCc1c[nH]cn1 [Compound 2, (3Z)-4-(6-cyclohexylhex-3-en-1-yl)imidazole] |  | binding to GTPγS-treated cortical membrane preparation compared with non-treated preparation (Histamine H3 receptor): relatively little difference; Decrease in Food Intake (%) ([1]; Dose 3, intraperitoneal): 5.5 ± 0.8%
7 | 5.6 ± 0.12 mg/kg | Fc1ccc(C(OCCCc2c[nH]cn2)c2ccc(F)cc2)cc1 [Compound 8, 3-(1H-imidazol-4-yl)propyl-di(p-fluorophenyl)-methylether] | 56.6 ± 8.3* % | 
8 | 8.0 ± 1.3 mg/kg | O=C(CCCCC1CCCCC1)N1CCC(c2c[nH]cn2)CC1 [Compound 5, 4-(N-(5-cyclohexylpentan-1-one-1-yl)piperidin-4-yl)imidazole] | 67.6 ± 9.6* % | 
9 | ˜15 mg/kg | N[C@H](/C=C\CCc1c[nH]cn1)CC1CCCCC1 [Compound 4, 4-(((5S)(3Z)-5-amino-6-cyclohexyl)hex-3-en-1-yl)imidazole] |  | Decrease in Food Intake (%) ([1]; Dose 20, intraperitoneal): 53.9 ± 11.1* %
